Entries after “also recorded” stand apart in the source; their conditions may differ.
Key:
MCF-7 cells [1] = assay: MTT assay in MCF-7 cells; type: cell-based; conditions: for IC50: MCF-7, MTT; for viability at 10 µM: read-out: viable cells
Source text: (§1) An in vitro cancer cell two-dimensional culture model was used for this study using 3-(4,5-dimethylthiazole-2-yl)-2,5-diphenyltetrazolium bromide (MTT) assay.[19]
(§2) The cell viability of PPPs was investigated using 3-(4,5-dimethylthiazole-2-yl)-2,5-diphenyltetrazolium bromide (MTT) reduction assay in the presence of 10% fetal bovine serum in antibiotic free media. The yellow tetrazolium salt (MTT) is modified by mitochondrial dehydrogenases to its purple formazan derivative (MTT-formazan) with maximum absorbance at 560–570 nm. […] Experiment was performed in 96-well plates (Cellstar, Germany) growing 10 000 cells (MCF-7, MDA-MB231, and MCF-10A) per well for 24 h before treatments. Experiments were performed for various concentrations of PPPs ranging from 10^5 to 10^0 nM and compared with Taxol as positive control ranging from 10^2 to 10^–3 nM, as described in particular experiment. Cells were incubated for 48 h before performing the MTT assay. At the end of the incubation period, cells were treated with MTT (20 μL, 5 mg/mL) per well and further incubated for 4 h. At the end of the incubation, the entire medium was removed from the wells and 200 μL of dimethyl sulfoxide (DMSO) was added to dissolve blue-colored formazan crystals produced by mitochondrial respirations. The percentage cell viability was obtained by calculating absorbance values and calculated using the formula %viability = {[A630(treated cells) – (background)]/[A630(untreated cells) – background]} × 100.

MDA-MB231 cells = assay: MTT assay in MDA-MB231 cells; type: cell-based
Source text: as §1, §2

human melanoma C32 cells = assay: MTT assay in C32 cells; type: cell-based; conditions: 48 h
Source text: as §1, §2

MCF-10A cells = assay: MTT assay in noncancerous MCF-10A cells; type: cell-based, human; conditions: 10 μM, 48 h
Procedure: Effectivity of anticancer drugs not only depends on cancer inhibition property but minimum effect to noncancerous normal cells. A representative study was performed on MCF-10A cells of noncancerous nature and human breast origin. […] It indicates the selectivity of PPPs toward cancer cells, presumably due to higher variation in tubulin polymerization processes.
as §2

MCF-7 cells [2] = assay: Cell growth density study (bright field images); type: cell-based; conditions: MCF-7, 1 μM
tubulin [3] = assay: In vitro microtubule polymerization assay (fluorescence); type: biochemical; design: dose or concentration left out as unconfirmed; conditions: 37 °C, 1.5 h, λex 350 nm, 430 nm
Procedure: To gather further insight into the molecular mechanism of action of PPPs, an in vitro cytoskeleton assay was carried out to investigate the effect of these agents on microtubule polymerization (Figure 1). In this protocol, 85 μL of 10 mg/mL tubulin stock was incubated with tubulin glycerol buffer for 1.5 h at 37 °C in the presence of various PPPs at a fixed concentration (20 mM). Following this, the degree of tubulin polymerization was evaluated by observing their fluorescence profile with time.
The content of polymerized microtubules was monitored by measuring fluorescence intensity at 430 nm (λex = 350 nm) every 7 s for 1.5 h. Paclitaxel (PTXL), a well-known microtubule stabilizer, was added to the assay as a positive control, whereas the tubulin glycerol buffer acted as a negative control. […] This implies that addition of PPP1–7 into the assay led to a stabilization of microtubule polymerization. […] Further inspection to correlate between the obtained trend in tubulin polymerization and modifications attempted at the N-1 and C-3 positions yielded interesting observations. […]
Unless otherwise mentioned, the reagents and chemicals were purchased from Sigma-Aldrich (St. Louis, MO) and used without any purification. […] High-resolution mass spectra (HRMS) were recorded on a quad time-of-flight electrospray ionization (ESI)-MS instrument.

tubulin [4] = assay: SDS-PAGE of PPP-tubulin mixtures, band intensity of polymerized tubulin (FIJI); type: biochemical; conditions: Coomassie stain, among all PPP–tubulin mixtures
Procedure: With this promising result, we further focused on confirming the polymerization of microtubules. PPP–tubulin mixtures were collected from the abovementioned assay, and a sodium dodecyl sulfate polyacrylamide gel electrophoresis (SDS-PAGE) was performed to separate both tubulin as well as polymerized tubulin from the mixture. […] Two distinct bands were obtained, one in the region of 40–55 kDa, which is consistent with the molecular weight of α-, β-tubulin,[16] and other in the region of 130 kDa. This is presumably a result of tubulin polymerization. A semiquantitative analysis of the polymerized tubulin bands was performed using FIJI[17] to calculate the band intensities, as shown in Figure 2b. Fold change of band intensities was further calculated with respect to PPP5–tubulin mixture (Figure 2c).  Figure 2 (a) Coomassie-stained gel lanes for tubulin–dye mixtures, showing two migrating populations, polymerized tubulin (∼130 kDa MW), and α-, β-tubulin (∼50 kDa MW). A representative molecular weight standard lane is also shown across the sample lanes for comparison.

[5] = Homo sapiens, MCF7, MCF-7, 10 μM, 48 h

Row | Compound | viability at 10 µM (MCF-7 cells [1]; [5]) [%] | IC50 (MCF-7 cells [1]; Homo sapiens, MCF7, 48 h) [µM] | IC50 (MDA-MB231 cells; Homo sapiens, MDA-MB-231, 48 h) [µM] | IC50 (human melanoma C32 cells; Homo sapiens) [µM] | cell death in noncancerous cells (MCF-10A cells) | other results
1 | 1-(Benzo[b]thiophen-2-yl)-3-methyl-5-(pyren-1-yl)-1H-pyrazole [PPP3] | – | – | – | – | – | viable cells (MCF-7 cells [1]; MCF-7, 10 μM, 48 h): 52 ± 5%; IC50 (MCF-7 cells [1]; 48 h): > 100 µM; IC50 (MDA-MB231 cells; 48 h): > 100 µM; IC50 (human melanoma C32 cells): > 100 µM
2 | Cc1cc(-c2ccc3ccc4cccc5ccc2c3c45)n(-c2ccccc2)n1 [PPP1, 3-Methyl-1-phenyl-5-(pyren-1-yl)-1H-pyrazole] | 50 ± 5 | 60 ± 10 | > 100 | > 100 | did not result in any significant cell death | –
3 | Cc1cc(-c2ccc3ccc4cccc5ccc2c3c45)n(-c2ccc(-c3ccccc3)cc2)n1 [PPP2, 1-([1,1′-Biphenyl]-4-yl)-3-methyl-5-(pyren-1-yl)-1H-pyrazole] | 45 ± 3 | 34 ± 4 | 15 ± 5 | > 100 | – | –
4 | c1ccc(-c2cc(-c3ccc4ccc5cccc6ccc3c4c56)n(-c3ccccc3)n2)cc1 [PPP4, 1,3-Diphenyl-5-(pyren-1-yl)-1H-pyrazole] | 30 ± 3 | 1 ± 0.5 | 0.5 ± 0.2 | 5 ± 2 | did not result in any significant cell death | loss in cell growth density (MCF-7 cells [2]): maximum loss
5 | c1ccc(-c2ccc(-n3nc(-c4ccccc4)cc3-c3ccc4ccc5cccc6ccc3c4c56)cc2)cc1 [PPP5, 1-([1,1′-Biphenyl]-4-yl)-3-phenyl-5-(pyren-1-yl)-1H-pyrazole] | 70 ± 10 | > 100 | > 100 | > 100 | – | effect on microtubule polymerization (fluorescence intensity with time) (tubulin [3]): inhibits microtubule formation; also recorded: inhibition of microtubule polymerization; band intensity of polymerized tubulin (∼130 kDa) (tubulin [4]): least
6 | Cc1cc(-c2ccc3ccc4cccc5ccc2c3c45)[nH]n1 [PPP6, 3-Methyl-5-(pyren-1-yl)-1H-pyrazole] | 55 ± 5 | 43 ± 5 | > 100 | > 100 | – | –
7 | O=C(O)c1cc(-c2ccc3ccc4cccc5ccc2c3c45)n(-c2ccccc2)n1 [PPP7, 1-Phenyl-5-(pyren-1-yl)-1H-pyrazole-3-carboxylic Acid] | 50 ± 5 | 8 ± 2 | 10 ± 2 | 14 ± 2 | did not result in any significant cell death | –
8 | CC(=O)O[C@H]1C(=O)[C@@]2(C)[C@H]([C@H](OC(=O)c3ccccc3)[C@]3(O)C[C@H](OC(=O)[C@H](O)[C@@H](NC(=O)c4ccccc4)c4ccccc4)C(C)=C1C3(C)C)[C@]1(OC(C)=O)CO[C@@H]1C[C@@H]2O [Taxol, Paclitaxel, reference compound] | – | – | – | – | – | effect on microtubule polymerization (fluorescence intensity with time) (tubulin [3]; listed as PTXL): increase in relative fluorescence intensity; also recorded: stabilizing the tubulin polymerization reaction; cell growth level (MCF-7 cells [1]; MCF-7, positive control, Figure 4b): 42 ± 10%

Reference: paper PMC6130796, “Copper-Catalyzed Syntheses of Pyrene-Pyrazole Pharmacophores and Structure Activity Studies for Tubulin Polymerization” (ACS Omega, 2018)
